According to patent US10214544B2, “Imidazopyridazine and imidazothiadiazole compounds” (Universite de Montreal, priority 2015, dated 2019):
pEC50: −log10 of the molar value. No end group written: not given here.

Key:
PAR1 = PAR1 (Homo sapiens (Human), UniProt P25116); test: FLIPR assay, PAR1 agonist peptide response in PAR1/PAR4-expressing HEK293 cells; assay type: cell-based; details: routine test of agonist response, FLIPR assay of Example A
Source text: HEK293 cells stably expressing PAR4 were generated by a standard method of transfection of human PAR4 (F2R23) cDNA expression vector and selected based on PAR4 protein expression or mRNA expression. […] These cells also express endogenous PAR1 and can elicit calcium signal upon stimulation with PAR1 agonist peptide. Therefore, the same cells were also used to determine selectivity against PAR1 and agonist activity for both receptors. Cells from HEK293 PAR4 Clone 1.2A (BMS Arctic ID 383940) were propagated and used for calcium mobilization studies.
FLIPR-based calcium mobilization assay in HEK293 cells was used to measure PAR4 antagonism, agonism, and selectivity against PAR1. The activity of the PAR4 antagonists of the present invention were tested in PAR4 expressing cells by monitoring H-Ala-Phe(4-F)-[…]NH2-induced intracellular calcium mobilization. Counter screens for agonist activity and PAR1 antagonist activity were also performed. Briefly, PAR1/PAR4-expressing HEK293 cells were grown in DMEM (Life Technology, Grand Island, N.Y.) containing 10% heat-inactivated FBS, 1% Penicillin-Streptomycin, 10 μg/mL blasticidin, and 100 μg/mL Zeocin at 37° C. with 5% CO2. […] Changes in fluorescence intensity were measured using a Functional Drug Screening System (FDSS, Hamamatsu, Japan) to determine agonist activities. […]

PAR4 = PAR4 (Homo sapiens (Human), UniProt Q96RI0); test: FLIPR assay in PAR4-expressing HEK293 cells (PAR4 antagonist activity); assay type: cell-based; details: inhibition of H-Ala-Phe(4-F)-Pro-Gly-Trp-Leu-Val-Lys-Asn-Gly-NH2-induced intracellular calcium mobilization
Chain of PAR4 (Q96RI0 18-385): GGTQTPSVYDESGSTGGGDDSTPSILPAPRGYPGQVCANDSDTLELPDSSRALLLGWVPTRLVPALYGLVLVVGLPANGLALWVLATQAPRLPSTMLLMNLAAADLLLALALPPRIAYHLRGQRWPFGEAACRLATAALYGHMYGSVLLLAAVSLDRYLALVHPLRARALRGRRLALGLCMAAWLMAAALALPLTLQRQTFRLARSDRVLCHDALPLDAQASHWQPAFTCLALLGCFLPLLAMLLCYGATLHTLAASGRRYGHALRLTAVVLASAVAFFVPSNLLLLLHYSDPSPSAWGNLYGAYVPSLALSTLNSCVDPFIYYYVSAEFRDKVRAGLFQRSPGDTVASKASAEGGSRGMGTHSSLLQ

Chain of PAR1 (P25116 22-425): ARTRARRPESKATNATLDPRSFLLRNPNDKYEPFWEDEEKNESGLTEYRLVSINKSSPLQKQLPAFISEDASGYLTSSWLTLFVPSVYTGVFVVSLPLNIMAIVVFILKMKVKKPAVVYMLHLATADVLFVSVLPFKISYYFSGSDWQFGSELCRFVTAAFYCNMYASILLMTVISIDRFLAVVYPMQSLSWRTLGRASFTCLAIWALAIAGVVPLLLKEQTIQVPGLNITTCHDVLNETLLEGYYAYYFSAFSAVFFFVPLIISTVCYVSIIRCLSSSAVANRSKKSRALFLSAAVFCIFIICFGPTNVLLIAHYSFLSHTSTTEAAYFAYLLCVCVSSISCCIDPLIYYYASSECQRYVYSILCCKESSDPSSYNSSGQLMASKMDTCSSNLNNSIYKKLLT

SFFLRR [SFFLRR]
pEC50 (PAR1): ~5.70

COc1cc(OCc2cccc(N(C)C(=O)c3cncnc3)c2)c2cc(-c3cn4nc(OC)sc4n3)oc2c1 [Example 92]
pEC50 (PAR4): 8.46
